Values of other authors in patent US7189722B2, “Aryl spirohydantoin CGRP receptor antagonists” (Merck & Co., Inc., priority 2003, dated 2007).
Like-named read-outs stand apart in the source and are kept apart here. Ends that are not written are not given here.

Assays:
[1] = test system: facial blood flow; settings: marmoset, electrical stimulation of the trigeminal ganglion (Doods et al. 2000)
[2] = test system: middle meningeal artery diameter; settings: rats, electrical stimulation of the dura mater, prior administration (Williamson et al. 1997)
[3] = test system: facial blood flow; settings: rat, trigeminal ganglion stimulation (Escott et al. 1995)

| Compound | effect on increase of facial blood flow [1] | effect on increase of middle meningeal artery diameter [2] | effect on increase of facial blood flow [3] |
| --- | --- | --- | --- |
| NCCCC[C@H](NC(=O)[C@@H](Cc1cc(Br)c(O)c(Br)c1)NC(=O)N1CCC(N2Cc3ccccc3NC2=O)CC1)C(=O)N1CCN(c2ccncc2)CC1 [BIBN4096BS] | blocked |  |  |
| CGRP(8-37): a peptide CGRP antagonist (VTHRLAGLLSRSGGVVKNNFVPTNVGSKAF; ends and bridges not checked; UniProt P06881 90-119, looked up, fragment) |  | blocked | inhibited |
